For eight compounds, IC50 results are on record in PMC9910069 (ACS Omega, 2023).

In assay [1] the target is Electric eel AChE (type-VI-S) (Electrophorus electricus, UniProt O42275). The assay can be described thus: Anti-cholinesterase inhibition assay. It counts as biochemical.
Another assay has as its target equine BChE (Equus caballus, UniProt P81908). The assay can be described thus: Anti-cholinesterase inhibition assay. It counts as biochemical.

Sequence of equine BChE (P81908 whole entry): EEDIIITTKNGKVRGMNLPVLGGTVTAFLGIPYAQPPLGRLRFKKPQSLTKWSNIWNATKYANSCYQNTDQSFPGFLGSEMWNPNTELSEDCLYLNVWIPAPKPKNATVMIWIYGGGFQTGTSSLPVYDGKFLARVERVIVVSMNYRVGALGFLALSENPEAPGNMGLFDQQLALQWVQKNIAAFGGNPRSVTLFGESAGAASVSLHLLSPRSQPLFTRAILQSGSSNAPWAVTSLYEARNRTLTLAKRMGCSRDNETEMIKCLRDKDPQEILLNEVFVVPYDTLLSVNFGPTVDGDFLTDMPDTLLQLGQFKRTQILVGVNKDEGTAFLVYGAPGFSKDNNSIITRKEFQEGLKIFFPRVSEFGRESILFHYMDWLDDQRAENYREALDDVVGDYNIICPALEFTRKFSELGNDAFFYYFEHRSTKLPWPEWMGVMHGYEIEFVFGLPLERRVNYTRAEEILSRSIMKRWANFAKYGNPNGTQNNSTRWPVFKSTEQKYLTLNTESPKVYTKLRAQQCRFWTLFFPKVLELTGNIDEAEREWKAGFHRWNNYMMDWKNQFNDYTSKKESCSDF
Sequence of Electric eel AChE (type-VI-S) (O42275 24-633): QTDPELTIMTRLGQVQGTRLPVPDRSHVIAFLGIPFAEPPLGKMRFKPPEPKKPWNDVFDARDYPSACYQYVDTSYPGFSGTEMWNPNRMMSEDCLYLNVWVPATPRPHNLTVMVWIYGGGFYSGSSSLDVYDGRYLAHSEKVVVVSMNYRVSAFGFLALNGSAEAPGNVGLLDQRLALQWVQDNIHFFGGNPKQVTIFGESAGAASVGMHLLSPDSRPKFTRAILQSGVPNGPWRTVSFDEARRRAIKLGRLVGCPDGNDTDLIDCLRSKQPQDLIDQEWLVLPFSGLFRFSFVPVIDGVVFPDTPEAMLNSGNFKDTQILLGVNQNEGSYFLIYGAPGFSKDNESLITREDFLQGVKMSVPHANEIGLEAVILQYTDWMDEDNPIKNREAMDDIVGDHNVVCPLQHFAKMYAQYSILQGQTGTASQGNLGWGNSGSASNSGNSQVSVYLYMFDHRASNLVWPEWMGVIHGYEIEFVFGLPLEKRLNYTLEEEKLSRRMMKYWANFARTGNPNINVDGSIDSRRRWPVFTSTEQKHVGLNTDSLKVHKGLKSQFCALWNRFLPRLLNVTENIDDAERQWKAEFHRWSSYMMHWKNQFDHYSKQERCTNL

On to `CCOc1ccc(C=NNC(=S)NCC(=O)c2ccccc2)cc1` [Compound 8, 2-(4-Ethoxybenzylidene)-N-(2-oxo-2-phenylethyl)hydrazine-1-carbothioamide], for which the IC50 (commonly the point on the concentration scale where inhibition reaches its midpoint) came out at 220.22 ± 0.14 µM in assay [1] and 260.21 ± 0.23 µM on equine BChE.

In assay [1], `CCOc1ccc(C=NNC(=S)NCC(=O)c2cccc(C)c2)cc1` [Compound 5, 2-(4-Ethoxybenzylidene)-N-(2-oxo-2-(m-tolyl)ethyl)hydrazine-1-carbothioamide] returned an IC50 of 295.12 ± 0.12 µM.

As to `Cc1ccc(C(=O)CNC(=S)NN=Cc2ccc([N+](=O)[O-])cc2)cc1` [Compound 12, 2-(4-Nitrobenzylidene)-N-(2-oxo-2-(p-tolyl)ethyl)hydrazine-1-carbothioamide], the IC50 was found to be 280.24 ± 0.21 µM in assay [1] and 260.38 ± 0.25 µM against equine BChE.

On to `CCOc1ccc(C=NNC(=S)NCC(=O)c2ccc(Br)cc2)cc1` [Compound 6, N-(2-(4-Bromophenyl)-2-oxoethyl)-2-(4-ethoxybenzylidene)hydrazine-1-carbothioamide], for which the IC50 in assay [1] stood at 160.04 ± 0.02 µM; on equine BChE it was 190.21 ± 0.13 µM.

For the compound `CCOc1ccc(C=NNC(=S)NCC(=O)c2ccccc2O)cc1` [Compound 9, 2-(4-Ethoxybenzylidene)-N-(2-(2-hydroxyphenyl)-2-oxoethyl)hydrazine-1-carbothioamide], at equine BChE, the IC50 came to 147.2 ± 0.09 µM.

`CCOc1ccc(C=NNC(=S)NCC(=O)c2ccc(Cl)cc2)cc1` [Compound 7, N-(2-(4-Chlorophenyl)-2-oxoethyl)-2-(4-ethoxybenzylidene)hydrazine-1-carbothioamide]: in assay [1], the half-maximal inhibitory concentration (IC50) worked out at 140.52 ± 0.11 µM.

In assay [1], `CCOc1ccc(C=NNC(=S)NCC(=O)c2ccc(Cl)cc2Cl)cc1` [Compound 10, N-(2-(2,4-Dichlorophenyl)-2-oxoethyl)-2-(4-ethoxybenzylidene)hydrazine-1-carbothioamide] returned an IC50 of 275.71 ± 0.12 µM.

Take `O=C(CNC(=S)NN=Cc1ccc([N+](=O)[O-])cc1)c1ccccc1Br` [Compound 17, N-(2-(2-Bromophenyl)-2-oxoethyl)-2-(4-nitrobenzylidene)hydrazine-1-carbothioamide]: the values for the IC50 (in assay [1]; on equine BChE) were 114.6 ± 0.15 µM and 150.4 ± 0.18 µM, respectively.
